BindingDB's records for patent US20250170122 (Intellikine, 2025)
pIC50: −log10 of the molar value.

How the values were obtained:
Experiment in all cases: Inhibition Assays of p110α/p85α, p110β/p85α, p110δ/p85α, and p110γ
[1] = biological target: T1, Phosphatidylinositol 4,5-bisphosphate 3-kinase catalytic subunit delta isoform (Homo sapiens, UniProt O00329)
T1 sequence (O00329 whole entry): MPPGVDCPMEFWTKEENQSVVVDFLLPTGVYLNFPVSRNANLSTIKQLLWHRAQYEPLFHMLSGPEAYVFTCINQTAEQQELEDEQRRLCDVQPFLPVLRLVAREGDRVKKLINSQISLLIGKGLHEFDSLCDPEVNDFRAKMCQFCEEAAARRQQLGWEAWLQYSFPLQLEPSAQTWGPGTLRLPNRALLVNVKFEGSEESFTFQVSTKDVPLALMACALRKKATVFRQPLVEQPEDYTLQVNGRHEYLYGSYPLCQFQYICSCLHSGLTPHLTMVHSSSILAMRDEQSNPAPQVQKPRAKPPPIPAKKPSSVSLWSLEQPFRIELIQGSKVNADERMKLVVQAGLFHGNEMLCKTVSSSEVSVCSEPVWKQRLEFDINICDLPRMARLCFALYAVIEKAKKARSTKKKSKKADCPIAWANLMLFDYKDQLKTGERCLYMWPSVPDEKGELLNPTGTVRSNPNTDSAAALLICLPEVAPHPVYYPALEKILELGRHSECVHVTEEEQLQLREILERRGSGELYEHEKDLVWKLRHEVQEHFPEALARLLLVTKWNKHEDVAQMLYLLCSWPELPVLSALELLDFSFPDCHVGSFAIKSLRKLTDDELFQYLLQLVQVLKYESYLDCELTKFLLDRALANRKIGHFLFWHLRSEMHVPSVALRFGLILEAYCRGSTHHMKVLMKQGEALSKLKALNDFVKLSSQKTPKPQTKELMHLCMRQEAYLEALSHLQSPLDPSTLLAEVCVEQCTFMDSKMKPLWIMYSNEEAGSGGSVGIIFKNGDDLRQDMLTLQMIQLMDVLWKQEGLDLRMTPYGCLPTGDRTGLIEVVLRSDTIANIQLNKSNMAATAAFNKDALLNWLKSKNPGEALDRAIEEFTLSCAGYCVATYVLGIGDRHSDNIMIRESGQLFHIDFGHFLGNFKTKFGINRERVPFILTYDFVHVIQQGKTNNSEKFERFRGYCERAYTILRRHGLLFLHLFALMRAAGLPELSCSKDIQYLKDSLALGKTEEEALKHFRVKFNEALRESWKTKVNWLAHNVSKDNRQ
Procedure: (§1) Briefly, the assay is a time resolved FRET assay that indirectly measures PIP3 product formed by the activity of a PI3-K. The kinase reaction is performed in a microtitre plate (e.g., a 384 well microtitre plate). The total reaction volume is approximately 20 ul per well. In the first step, each well receives 2 ul of test compound in 20% dimethylsulphoxide resulting in a 2% DMSO final concentration. Next, approximately 14.5 ul of a kinase/PIP2 mixture (diluted in 1× reaction buffer) is added per well for a final concentration of 0.25-0.3 ug/ml kinase and 10 uM PIP2. […] To start the reaction, 3.5 ul of ATP (diluted in 1× reaction buffer) is added per well for a final concentration of 10 uM ATP. The plate is sealed and incubated for 1 hour at room temperature. The reaction is stopped by adding 5 ul of Stop Solution per well and then 5 ul of Detection Mix is added per well. The plate is sealed, incubated for 1 hour at room temperature, and then read on an appropriate plate reader. Data is analyzed and IC50s are generated using GraphPad Prism 5.

[2] = biological target: T2, Phosphatidylinositol 4,5-bisphosphate 3-kinase catalytic subunit gamma isoform (Homo sapiens, UniProt P48736)
T2 construct: gene PIK3CG
Procedure: as §1

[3] = biological target: Phosphatidylinositol 4,5-bisphosphate 3-kinase catalytic subunit alpha isoform (Homo sapiens, UniProt P42336)
Procedure: as §1

[4] = biological target: Phosphatidylinositol 4,5-bisphosphate 3-kinase catalytic subunit beta isoform (Homo sapiens, UniProt P42338)
Chain of Phosphatidylinositol 4,5-bisphosphate 3-kinase catalytic subunit beta isoform (P42338 whole entry, canonical isoform): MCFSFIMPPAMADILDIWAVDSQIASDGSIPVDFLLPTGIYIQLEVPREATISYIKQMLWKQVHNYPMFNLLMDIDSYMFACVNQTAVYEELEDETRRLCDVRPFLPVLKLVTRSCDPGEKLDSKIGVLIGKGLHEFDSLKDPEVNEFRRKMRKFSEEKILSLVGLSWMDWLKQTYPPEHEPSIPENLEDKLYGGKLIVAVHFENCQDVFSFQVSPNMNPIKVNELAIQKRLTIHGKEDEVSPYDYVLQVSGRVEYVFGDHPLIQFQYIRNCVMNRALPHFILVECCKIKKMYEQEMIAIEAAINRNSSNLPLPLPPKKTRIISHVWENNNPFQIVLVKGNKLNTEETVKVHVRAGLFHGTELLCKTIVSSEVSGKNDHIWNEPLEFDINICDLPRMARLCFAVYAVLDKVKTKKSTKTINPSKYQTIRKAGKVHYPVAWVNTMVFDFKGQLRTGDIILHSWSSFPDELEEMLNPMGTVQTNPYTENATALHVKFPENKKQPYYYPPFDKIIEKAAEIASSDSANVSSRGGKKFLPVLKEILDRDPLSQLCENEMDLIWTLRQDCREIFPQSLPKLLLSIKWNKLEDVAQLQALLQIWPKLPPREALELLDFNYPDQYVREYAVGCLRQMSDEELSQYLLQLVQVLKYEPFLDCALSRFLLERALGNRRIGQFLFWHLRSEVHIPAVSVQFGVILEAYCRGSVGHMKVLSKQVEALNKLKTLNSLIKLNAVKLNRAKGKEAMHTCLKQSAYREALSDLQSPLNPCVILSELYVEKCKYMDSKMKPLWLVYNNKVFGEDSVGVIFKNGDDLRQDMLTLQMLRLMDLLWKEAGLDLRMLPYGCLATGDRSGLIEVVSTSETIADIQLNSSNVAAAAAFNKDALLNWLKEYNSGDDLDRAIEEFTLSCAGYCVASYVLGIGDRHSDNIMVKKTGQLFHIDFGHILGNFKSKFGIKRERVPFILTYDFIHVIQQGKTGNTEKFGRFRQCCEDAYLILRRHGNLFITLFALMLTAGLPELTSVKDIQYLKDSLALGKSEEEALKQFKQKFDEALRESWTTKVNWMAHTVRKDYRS
Procedure: as §1

T2 sequence (P48736 whole entry, looked up, canonical isoform): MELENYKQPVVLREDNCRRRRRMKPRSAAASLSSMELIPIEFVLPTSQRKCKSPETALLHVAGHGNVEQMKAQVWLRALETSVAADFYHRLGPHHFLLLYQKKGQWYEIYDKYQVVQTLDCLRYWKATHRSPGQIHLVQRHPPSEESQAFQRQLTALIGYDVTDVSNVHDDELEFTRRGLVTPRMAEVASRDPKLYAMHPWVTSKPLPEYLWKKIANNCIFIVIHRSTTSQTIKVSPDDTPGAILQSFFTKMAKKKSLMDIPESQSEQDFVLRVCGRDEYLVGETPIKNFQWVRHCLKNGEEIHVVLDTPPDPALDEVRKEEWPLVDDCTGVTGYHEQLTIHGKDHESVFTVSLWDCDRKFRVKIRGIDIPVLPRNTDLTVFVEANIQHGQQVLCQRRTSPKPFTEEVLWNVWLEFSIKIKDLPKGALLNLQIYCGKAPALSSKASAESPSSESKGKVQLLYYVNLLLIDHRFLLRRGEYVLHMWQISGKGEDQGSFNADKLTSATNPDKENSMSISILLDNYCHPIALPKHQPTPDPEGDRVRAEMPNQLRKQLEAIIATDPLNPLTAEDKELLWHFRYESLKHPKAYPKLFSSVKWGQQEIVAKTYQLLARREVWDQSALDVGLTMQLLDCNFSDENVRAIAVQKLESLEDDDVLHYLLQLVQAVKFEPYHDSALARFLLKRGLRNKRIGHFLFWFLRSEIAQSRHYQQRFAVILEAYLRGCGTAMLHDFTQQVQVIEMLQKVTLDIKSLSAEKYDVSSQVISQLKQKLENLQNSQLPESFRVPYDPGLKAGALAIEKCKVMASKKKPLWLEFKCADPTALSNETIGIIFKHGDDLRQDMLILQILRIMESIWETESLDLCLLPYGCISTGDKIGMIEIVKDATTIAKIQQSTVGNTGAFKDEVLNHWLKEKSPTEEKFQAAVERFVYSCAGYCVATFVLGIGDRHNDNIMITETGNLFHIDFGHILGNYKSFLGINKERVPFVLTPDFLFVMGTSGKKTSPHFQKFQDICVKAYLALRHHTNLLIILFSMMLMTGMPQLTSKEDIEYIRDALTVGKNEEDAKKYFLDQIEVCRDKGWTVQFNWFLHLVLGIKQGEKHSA
Chain of Phosphatidylinositol 4,5-bisphosphate 3-kinase catalytic subunit alpha isoform (P42336 whole entry, canonical isoform): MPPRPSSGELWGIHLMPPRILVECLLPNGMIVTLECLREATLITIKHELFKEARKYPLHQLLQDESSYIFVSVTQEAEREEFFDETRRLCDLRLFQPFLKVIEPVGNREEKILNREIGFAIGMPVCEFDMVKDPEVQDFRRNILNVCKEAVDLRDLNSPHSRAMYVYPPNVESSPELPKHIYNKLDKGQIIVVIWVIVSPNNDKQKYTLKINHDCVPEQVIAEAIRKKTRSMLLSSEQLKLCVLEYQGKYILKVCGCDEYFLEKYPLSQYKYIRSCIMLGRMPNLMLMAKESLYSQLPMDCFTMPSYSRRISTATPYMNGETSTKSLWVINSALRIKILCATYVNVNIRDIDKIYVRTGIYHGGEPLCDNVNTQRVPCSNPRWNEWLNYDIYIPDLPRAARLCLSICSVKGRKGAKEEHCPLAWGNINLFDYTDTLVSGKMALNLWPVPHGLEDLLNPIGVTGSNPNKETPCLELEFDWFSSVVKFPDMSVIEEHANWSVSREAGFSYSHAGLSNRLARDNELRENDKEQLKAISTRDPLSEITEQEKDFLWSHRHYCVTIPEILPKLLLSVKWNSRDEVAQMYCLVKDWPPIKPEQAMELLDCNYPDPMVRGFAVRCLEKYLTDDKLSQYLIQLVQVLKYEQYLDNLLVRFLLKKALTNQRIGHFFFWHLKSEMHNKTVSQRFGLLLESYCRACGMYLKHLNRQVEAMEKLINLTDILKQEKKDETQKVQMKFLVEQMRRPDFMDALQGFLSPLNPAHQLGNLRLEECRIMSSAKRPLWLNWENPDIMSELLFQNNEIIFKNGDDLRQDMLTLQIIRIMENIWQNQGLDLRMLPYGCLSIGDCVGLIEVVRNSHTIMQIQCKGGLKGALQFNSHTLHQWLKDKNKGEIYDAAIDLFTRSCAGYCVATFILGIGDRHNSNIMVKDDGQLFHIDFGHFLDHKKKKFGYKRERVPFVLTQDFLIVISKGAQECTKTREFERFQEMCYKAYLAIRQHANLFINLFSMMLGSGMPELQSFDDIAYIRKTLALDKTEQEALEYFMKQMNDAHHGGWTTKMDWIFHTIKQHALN

| SMILES | pIC50 [1] | pIC50 [2] | pIC50 [3] | pIC50 [4] |
| --- | --- | --- | --- | --- |
| Cc1ccccc1-n1c(Cn2cnc3c(N)ncnc32)cc2cccc(C)c2c1=O [US20250170122, Compound 5] | > 5.00 | < 5.00 |  |  |
| Cc1cccc2cc(Cn3nc(-c4cccc(Cl)c4)c4c(N)ncnc43)n(-c3ccccc3F)c(=O)c12 [US20250170122, Compound 38] |  | > 5.00 |  |  |
| Cc1cccc2cc(Cn3nc(-c4ccc(O)cc4)c4c(N)ncnc43)n(-c3ccccc3F)c(=O)c12 [US20250170122, Compound 46] | > 5.00 | > 6.00 | < 5.00 | < 5.00 |
| Cc1cccc2cc(Cn3nc(I)c4c(N)ncnc43)n(C3CCCC3)c(=O)c12 [US20250170122, Compound 57] | > 6.00 | > 5.00 | < 5.00 | < 5.00 |
| Cc1cccc2cc(Cn3nc(-c4ccc(Cl)c(O)c4)c4c(N)ncnc43)n(C3CCCC3)c(=O)c12 [US20250170122, Compound 71] | > 6.00 | > 6.00 | < 5.00 | > 5.00 |
| CC(C)n1c(Cn2nc(I)c3c(N)ncnc32)cc2ccccc2c1=O [US20250170122, Compound 129] | > 5.00 |  |  |  |
| CC(=O)Nc1nc2ccc(-c3nn(Cc4cc5cccc(C)c5c(=O)n4-c4ccccc4)c(C)c3CN)cc2s1 [US20250170122, Compound 177] | > 7.00 | > 7.00 |  |  |
| Cc1cccc2cc(C(C)Nc3ncnc4[nH]cnc34)n(-c3ccccc3F)c(=O)c12 (stereo not drawn) [US20250170122, Compound 203] |  | > 7.00 |  |  |
| C[C@H](Nc1ncnc2[nH]cnc12)c1cc2cccc(Cl)c2c(=O)n1-c1cccc(F)c1 [US20250170122, Compound 328] | > 7.00 | > 7.00 |  |  |
| C[C@H](Nc1ncnc2[nH]cnc12)c1cc2cccc(Cl)c2c(=O)n1-c1ccc(F)cc1 [US20250170122, Compound 329] | > 7.00 | > 7.00 |  | > 7.00 |
| C[C@H](Nc1ncnc2[nH]cnc12)c1cc2cccc(F)c2c(=O)n1-c1ccccc1 [US20250170122, Compound 330] | > 7.00 | > 7.00 |  |  |
| C[C@H](Nc1ncnc2[nH]cnc12)c1cc2cccc(F)c2c(=O)n1-c1cccc(F)c1 [US20250170122, Compound 331] | > 7.00 |  |  |  |
| C[C@H](Nc1ncnc2[nH]cnc12)c1cc2cccc(F)c2c(=O)n1-c1ccc(F)cc1 [US20250170122, Compound 332] |  | > 7.00 |  |  |
| Cc1ccccc1-n1c(Cn2nc(-c3cn[nH]c3)c3c(N)ncnc32)cc2cccc(Cl)c2c1=O [US20250170122, Compound 336] | > 7.00 | > 7.00 |  |  |

More lines, now with the values ahead:

| pIC50 [1] | pIC50 [2] | pIC50 [3] | pIC50 [4] | SMILES |
| --- | --- | --- | --- | --- |
| > 7.00 |  |  |  | Nc1ncnc2c1c(-c1cn[nH]c1)nn2Cc1cc2cccc(Cl)c2c(=O)n1-c1ccccc1F [US20250170122, Compound 337] |
| > 7.00 | > 7.00 |  |  | Nc1ncnc2c1c(-c1cn[nH]c1)nn2Cc1cc2cccc(Cl)c2c(=O)n1-c1ccccc1 [US20250170122, Compound 338] |
| > 7.00 |  |  |  | Nc1ncnc2c1c(-c1cn[nH]c1)nn2Cc1cc2cccc(Cl)c2c(=O)n1-c1cccc(F)c1 [US20250170122, Compound 339] |
|  | > 7.00 |  |  | C[C@H](Nc1ncnc2ccccc12)c1cc2cccc(Cl)c2c(=O)n1-c1ccccc1 [US20250170122, Compound 342] |
| > 7.00 | > 7.00 |  |  | C[C@H](Nc1ncnc2sccc12)c1cc2cccc(Cl)c2c(=O)n1-c1ccccc1 [US20250170122, Compound 343] |
| > 7.00 | > 7.00 |  |  | C[C@H](Nc1ncnc2ccsc12)c1cc2cccc(Cl)c2c(=O)n1-c1ccccc1 [US20250170122, Compound 344] |
| > 7.00 | > 7.00 |  |  | C[C@H](Nc1nc(N)ncc1C(F)(F)F)c1cc2cccc(Cl)c2c(=O)n1-c1ccccc1 [US20250170122, Compound 346] |
|  |  | > 6.00 |  | [2H]c1nc2c(N[C@@H](C)c3cc4cccc(Cl)c4c(=O)n3C3CC3)ncnc2[nH]1 [US20250170122, Compound 350] |
| > 7.00 | > 7.00 |  |  | Cc1csc2ncnc(N[C@@H](C)c3cc4cccc(Cl)c4c(=O)n3-c3ccccc3)c12 [US20250170122, Compound 352] |
| > 7.00 | > 7.00 |  |  | CNc1ncc(C(F)(F)F)c(N[C@@H](C)c2cc3cccc(Cl)c3c(=O)n2-c2ccccc2)n1 [US20250170122, Compound 354] |
| > 7.00 |  |  |  | C[C@H](Nc1ncnc2[nH]cnc12)c1cc2ncccc2c(=O)n1-c1ccccc1 [US20250170122, Compound 357] |
|  | > 7.00 |  |  | C[C@H](Nc1nc(N)nc2ccccc12)c1cc2cccc(Cl)c2c(=O)n1-c1ccccc1 [US20250170122, Compound 359] |
| > 7.00 |  |  |  | CC(C)C[C@H](Nc1ncnc2[nH]cnc12)c1cc2cccc(Cl)c2c(=O)n1-c1ccccc1 [US20250170122, Compound 363] |
| > 7.00 |  |  |  | CC(C)[C@H](Nc1ncnc2[nH]cnc12)c1cc2cccc(Cl)c2c(=O)n1-c1ccccc1 [US20250170122, Compound 364] |
| > 7.00 | > 7.00 |  |  | C[C@H](Nc1ncnc2[nH]cnc12)c1cc2cccc(Cl)c2c(=O)n1-c1cccc(Cl)c1 [US20250170122, Compound 365] |
| > 7.00 |  |  |  | C[C@H](Nc1ncnc2[nH]cnc12)c1cc2cccc(Cl)c2c(=O)n1-c1cccc(C(F)(F)F)c1 [US20250170122, Compound 366] |
